Legend:
[1] = tested on: Raji cells; format: cell-based; settings: with T cells, 48 hours, epcoritamab 0.01 pg/mL-100 ng/mL, gemcitabine, oxaliplatin at EC30 concentrations
Method: (§1) Briefly, human Burkitt lymphoma (Raji) and DLBCL (SU-DHL-4) cell lines were used as target cells. Cells were cultured in culture medium (RPMI 1640 with HEPES and L-Glutamine supplemented with 10% heat-inactivated donor bovine serum with iron, and 1% [v/v]penicillin/streptomycin) to which 2 mM L-glutamine and 1 mM sodium pyruvate were added, at 37° C., 5% CO2. T cells, isolated from human healthy donor buffy coats (Sanquin) by negative selection using the RosetteSep™ Human T Cell Enrichment Cocktail (Stemcell Technologies), followed by density centrifugation over a Ficoll gradient, both according to the manufacturer's instructions, were used as effector cells. Isolated cells were washed twice in phosphate buffered saline (PBS) and counted using acridine orange/propidium iodide (AO/PI) viability staining solution (Nexcelom Bioscience) on a Cellometer® Auto 2000 Cell Viability Counter. […] B-cell viability and T-cell activation were measured by flow cytometry (count of CD22-positive cells; expression of the T-cell activation markers CD69, CD25, programmed cell death protein 1 (PD-1), and CD107 [lysosomal associated membrane protein 1; LAMP-1] on CD4+ and CD8+ T cells). Absolute cell numbers were determined by adding Accucheck Counting beads (100 μL/well) (Thermofisher) and calculated as follows:
(§2) Correction factor=([bead count1+bead count2]/average bead countplate)
(§3) Absolute cell number=[cell countsample/correction factor]
(§4) The percentage cytotoxicity was calculated as follows:
(§5) % cytotoxicity=100−([absolute cell numbersample/absolute cell numberno antibody]×100%)

[2] = tested on: SU-DHL-4 cells; format: cell-based; settings: SU-DHL-4, with T cells, 48 hours; epcoritamab 0.01 pg/mL-100 ng/mL; gemcitabine, oxaliplatin at EC30 concentrations
Method: as §1, §2, §3, §4, §5

[3] = tested on: T cells incubated with SU-DHL-4 cells; assay: In vitro T-cell activation assay, T cells incubated with SU-DHL-4 cells; format: cell-based, human; settings: SU-DHL-4 target cells, 48 hours
Method: as §1, with “follows: […]” for “follows:”

[4] = tested on: R/R B-NHL; assay: Ongoing clinical trial of epcoritamab monotherapy (NCT03625037); format: in vivo, human; settings: R/R B-NHL patients, preliminary data
Source text: Summary of Ongoing Clinical Trial with Epcoritamab Epcoritamab as monotherapy is currently in a clinical trial for the treatment of relapsed/refractory (R/R) B-NHL (ClinicalTrials.gov Identifier: NCT03625037).

[5] = tested on: T cells incubated with Raji cells; assay: In vitro T-cell activation assay, T cells incubated with Raji cells; format: cell-based, human; settings: Raji target cells, 48 hours
Method: as §1, with “follows: […]” for “follows:”

[6] = epcoritamab 0.01 pg/mL-100 ng/mL, flow cytometry
[7] = gemcitabine 1 nM, oxaliplatin 0.3 μM

Compound | cytotoxicity of B cells (decrease in the number of viable B cells) [1] | cytotoxicity of B cells (decrease in the number of viable B cells) [2] | T-cell activation (upregulation of CD69, CD25, PD-1 and LAMP-1 expression) [3, 6] | Epcoritamab-induced T-cell activation in the presence of gemcitabine, oxaliplatin, or the combination [3, 7] | tolerated dose [4] | T-cell activation (upregulation of CD69, CD25, PD-1 and LAMP-1 expression) [5, 6] | Epcoritamab-induced T-cell activation in the presence of gemcitabine, oxaliplatin, or the combination [5, 7]
epcoritamab: IgG1 bispecific CD3×CD20 antibody; heavy and light chains of SEQ ID NOs: 24 and 25 (CD3 arm), 26 and 27 (CD20 arm); CAS 2134641-34-0 | concentration-dependent T-cell-mediated cytotoxicity | concentration-dependent T-cell-mediated cytotoxicity | concentration-dependent activation of both CD4+ (data not shown) and CD8+ T cells | not affected | at least 48 mg | concentration-dependent activation of both CD4+ (data not shown) and CD8+ T cells | not affected
O=C1[O][Pt]2([NH][C@@H]3CCCC[C@H]3[NH]2)[O]C1=O [oxaliplatin, [(1R,2R)-cyclohexane-1,2-diamine](ethanedioato-O,O′)platinum(II)] | induced cytotoxicity of B cells | induced cytotoxicity of B cells | – | – | – | – | –
Nc1ccn(C2OC(CO)C(O)C2(F)F)c(=O)n1 (centres unmarked) [gemcitabine, 4-amino-1-[3,3-difluoro-4-hydroxy-5-(hydroxymethyl)oxolan-2-yl]-1,2-dihydropyrimidin-2-one] | induced cytotoxicity of B cells | induced cytotoxicity of B cells | – | – | – | – | –
